Reference: patent publication US8420627B2, “Nasal, wound and skin formulations and methods for control of antibiotic-resistant staphylococci and other gram-positive bacteria” (priority 2009, dated 2013)
Entries after “also recorded” stand apart in the source; their conditions may differ. Read-outs that look alike come from different tables or passages of the source. One block for each molecule: values may come before it.

Assays:
[1] = system: S. aureus; details: Glycerol Esters of Fatty Acids; cited from earlier work
[2] = system: Staphylococcus aureus MRSA, ATCC 33591; test: in vitro Minimum Inhibitory Concentration (MIC), growth/no growth in dilution tubes; format: cell-based; details: for Concentration of the component at which bactericidal activity is still maintained in the three-component combination: dodecanol, glycerol monolaurate and benzoic acid combined; for MIC of Glycerol monolaurate in two-component combination: combined with 40 μg/mL Dodecanol; as to Growth or No Growth: key: Growth (+); No Growth (0)
Experimental: (§1) Now reported are in vitro Minimum Inhibitory Concentrations (MIC) for dodecanol against Staphylococcus aureus MRSA, ATCC 33591, Staphylococcus aureus VISA (Vancomycin intermediate sensitivity) ATCC 700699, and Enterococcus faecalis ATCC 51299 (formerly Streptococcus faecalis VREF (vancomycin resistant)). One tenth of a cc of dodecanol was diluted with 50 cc of polyethylene glycol 400 and 449.9 cc of sterilized deionized water, followed by five doubling dilutions. […] When combined with the other components of the formulation, a synergistic effect is seen such that bactericidal activity is still maintained even when the concentration of dodecanol is reduced to 20 μg/mL.
(§2) Now reported are in vitro Minimum Inhibitory Concentrations (MIC) for glycerol monolaurate against Staphylococcus aureus MRSA, ATCC 33591, Staphylococcus aureus VISA (Vancomycin intermediate sensitivity) ATCC 700699 and Vancomycin resistant Enterococcus faecalis ATCC 51299 (formerly Streptococcus faecalis VRSF). […] When combined with the other components of the formulation a synergistic effect is seen such that bactericidal activity is still maintained even when the concentration of glycerol monolaurate is reduced to 15 μg/mL.
The Minimum Inhibitory Concentration (MIC) for benzoic acid was determined against Staphylococcus aureus MRSA.
The MIC for dodecanol was experimentally determined to be about 83 micrograms/mL, the MIC for glycerol monolaurate was experimentally determined to be about 62.5 micrograms/mL, and the MIC for benzoic acid was experimentally determined to be about 1250 micrograms/mL. […] When a third component, the organic acid benzoic acid, was added to the formulation, the MICs for all three were much lower.

[3] = system: Staphylococcus; details: cited from earlier work
[4] = system: Staphylococcus aureus MRSA, ATCC 33591; test: In vitro time-kill, one minute contact; format: cell-based; details: for CFU Recovered: Initial Count 5.6 × 10^6
Experimental: (§3) Dodecanol and glycerol monolaurate were diluted to 2,000 micrograms/mL and then diluted to the following concentrations: Dodecanol: 100 micrograms/mL and glycerol monolaurate: 250 micrograms/mL. Each challenge organism was confirmed by Gram stain and colony morphology. […] Log reductions and percent reductions presented in Tables VII and VIII below were calculated using the following equations: […]
The nasal formulation of the invention was tested against S. aureus MRSA, ATCC 33591. The contact time for the formulation with the bacteria was one minute, after which time, an 8.3 log reduction in bacterial count was observed.
The hand and body wash formulation of the invention was tested against S. aureus MRSA, ATCC 33591 and MDR Klebsiella pneumoniae ATCC CI-2004.

[5] = Irritation of mucous membranes; details: low concentrations (83 micrograms/mL)
[6] = system: Enterococcus faecalis ATCC 51299; test: In vitro time-kill, one minute contact; format: cell-based; details: for CFU Recovered: Initial Count 5.6 × 10^6
Experimental: as §3

[7] = system: Staphylococcus aureus VISA, ATCC 700699; test: In vitro time-kill, one minute contact; format: cell-based; details: for CFU Recovered: Initial Count 5.6 × 10^6
Experimental: as §3

[8] = system: Vancomycin resistant Enterococcus faecalis ATCC 51299; test: in vitro Minimum Inhibitory Concentration (MIC), growth/no growth in dilution tubes; format: cell-based; as to Growth or No Growth: key: Growth (+); No Growth (0)
Experimental: as §1, §2

[9] = system: Staphylococcus aureus VISA (Vancomycin intermediate sensitivity) ATCC 700699; test: as above; format: cell-based; details: for MIC: Staphylococcus aureus, read-out: MIC (Minimum Inhibitory Concentration)
Experimental: as §1, §2

[10] = system: MRSA; test: Topical treatment of MRSA lesions in patients (case examples); format: in vivo, human; details: treatment before the formulation ointment; single patients
Source text: EXAMPLES OF SUCCESSFUL TREATMENT OF MRSA LESIONS USING THE NOVEL FORMULATIONS OF THE INVENTION ARE PROVIDED BELOW

[11] = Glycerol Monolaurate at 250 μg/mL
For Growth or No Growth in this document: key: Growth (+); No Growth (0).

SMILES: CCCCCCCCCCCCC(=O)OCC(O)CO (centres unmarked) [13 Carbon Mono, Tridecanoyl monoglyceride]
- Minimum inhibitory concentration for Staphylococcus [1]: No Inhibition

SMILES: O=C(O)c1ccccc1 [Benzoic Acid, benzoic acid]
- Growth or No Growth ([2]; Benzoic Acid 625 μg/mL, S. aureus MRSA, Average CFU/mL 8.9 × 10^6): +
- Growth or No Growth ([2]; Benzoic Acid 1,250 μg/mL, S. aureus MRSA, Average CFU/mL 8.9 × 10^6): 0
- Growth or No Growth ([2]; Benzoic Acid 2,500 μg/mL, S. aureus MRSA, Average CFU/mL 8.9 × 10^6): 0
- Growth or No Growth ([2]; Benzoic Acid 5,000 μg/mL, S. aureus MRSA, Average CFU/mL 8.9 × 10^6): 0
- Growth or No Growth ([2]; Benzoic Acid 10,000 μg/mL, S. aureus MRSA, Average CFU/mL 8.9 × 10^6): 0
- MIC of Benzoic Acid in combination ([2]; Dodecanol (20 μ/mL) and Glycerol Monolaurate (15 μ/mL) held constant, MRSA): <312.5 µg/mL
- MIC ([2]; S. aureus MRSA, Average CFU/mL 8.9 × 10^6, benzoic acid alone): 1250 µg/mL
- MIC ([2]; Staphylococcus aureus, S. aureus MRSA, Average CFU/mL 8.9 × 10^6, benzoic acid alone): 1250 µg/mL
- Concentration of the component at which bactericidal activity is still maintained in the three-component combination ([2]; MRSA): 312.5 µg/mL

SMILES: CCCCCCCCO [C-8]
- Effective Bactericidal Concentration of Primary Alcohols against Staphylococcus [3]: 800 Micrograms/mL

SMILES: CCCCCCCCCO [C-9]
- Effective Bactericidal Concentration of Primary Alcohols against Staphylococcus [3]: 200 Micrograms/mL

SMILES: CCCCCCCCCCO [C-10]
- Effective Bactericidal Concentration of Primary Alcohols against Staphylococcus [3]: 50 Micrograms/mL

SMILES: CCCCCCCCCCCO [C-11]
- Effective Bactericidal Concentration of Primary Alcohols against Staphylococcus [3]: 25 Micrograms/mL

SMILES: CCCCCCCCCCCCCO [C-13]
- Effective Bactericidal Concentration of Primary Alcohols against Staphylococcus [3]: >800 Micrograms/mL

- MIC ([8]; Enterococcus faecalis, ATCC 51299 / VRE, E. faecalis VRE, dodecanol alone, read-out: MIC (Minimum Inhibitory Concentration)): 83 µg/mL
- MIC ([9]; S. aureus VISA, dodecanol alone): 83 µg/mL
- MIC ([2]; Staphylococcus aureus, S. aureus MRSA, dodecanol alone, read-out: MIC (Minimum Inhibitory Concentration)): 83 µg/mL
- MIC of Dodecanol in two-component combination ([2]; combined with 30 μg/mL Glycerol monolaurate, S. aureus MRSA): 40 μg/mL Dodecanol
SMILES: CCCCCCCCCCCCO [Dodecanol, 1-dodecanol]
- % Reduction ([4]; Dodecanol at 100 μg/mL): 100%
- Log Reduction ([4]; Dodecanol at 100 μg/mL): 6.75
- CFU Recovered ([4]; Dodecanol at 100 μg/mL): <5 × 10^0 CFU per mL
- Irritating effects on the mucous membranes [5]: no irritating effects
- % Reduction ([6]; Dodecanol at 100 μg/mL): 100%
- Log Reduction ([6]; Dodecanol at 100 μg/mL): 7.04
- CFU Recovered ([6]; Dodecanol at 100 μg/mL): <5 × 10^0 CFU per mL
- % Reduction ([7]; Dodecanol at 100 μg/mL): 100%
- Log Reduction ([7]; Dodecanol at 100 μg/mL): 7.18
- CFU Recovered ([7]; Dodecanol at 100 μg/mL): <5 × 10^0 CFU per mL
- Growth or No Growth ([8]; final concentration 2.53125 μg/mL, E. faecalis VRE): +
- Growth or No Growth ([8]; final concentration 5.0625 μg/mL, E. faecalis VRE): +
- Growth or No Growth ([8]; final concentration 10.125 μg/mL, E. faecalis VRE): +
- Growth or No Growth ([8]; final concentration 20.25 μg/mL, E. faecalis VRE): +
- Growth or No Growth ([8]; final concentration 41.5 μg/mL, E. faecalis VRE): +
- Growth or No Growth ([8]; final concentration 83 μg/mL, E. faecalis VRE): 0
- Growth or No Growth ([9]; final concentration 2.53125 μg/mL, S. aureus VISA): +
- Growth or No Growth ([9]; final concentration 5.0625 μg/mL, S. aureus VISA): +
- Growth or No Growth ([9]; final concentration 10.125 μg/mL, S. aureus VISA): +
- Growth or No Growth ([9]; final concentration 20.25 μg/mL, S. aureus VISA): +
- Growth or No Growth ([9]; final concentration 41.5 μg/mL, S. aureus VISA): +
- Growth or No Growth ([9]; final concentration 83 μg/mL, S. aureus VISA): 0
- Effective Bactericidal Concentration of Primary Alcohols against Staphylococcus [3]: 12.5 Micrograms/mL
- Concentration of the component at which bactericidal activity is still maintained in the three-component combination ([2]; MRSA): 20 µg/mL
- Growth or No Growth ([2]; final concentration 2.53125 μg/mL, S. aureus MRSA): +
- Growth or No Growth ([2]; final concentration 5.0625 μg/mL, S. aureus MRSA): +
- Growth or No Growth ([2]; final concentration 10.125 μg/mL, S. aureus MRSA): +
- Growth or No Growth ([2]; final concentration 20.25 μg/mL, S. aureus MRSA): +
- Growth or No Growth ([2]; final concentration 41.5 μg/mL, S. aureus MRSA): +
- Growth or No Growth ([2]; final concentration 83 μg/mL, S. aureus MRSA): 0

SMILES: CCCCCCCCCCCC(=O)OCC(O)CO (centres unmarked) [Glycerol Monolaurate, glycerol monolaurate]
- Minimum inhibitory concentration for Staphylococcus [1]: 250 micrograms/mL
- % Reduction [4, 11]: 100%
- Log Reduction [4, 11]: 6.75
- CFU Recovered [4, 11]: <5 × 10^0 CFU per mL
- % Reduction [6, 11]: 100%
- Log Reduction [6, 11]: 7.04
- CFU Recovered [6, 11]: <5 × 10^0 CFU per mL
- % Reduction [7, 11]: 100%
- Log Reduction [7, 11]: 7.1
- CFU Recovered [7, 11]: <5 × 10^0 CFU per mL
- MIC ([8]; Enterococcus faecalis, ATCC51299, read-out: MIC (Minimum Inhibitory Concentration)): 125 µg/mL
- Growth or No Growth ([8]; final concentration 31.25 micrograms/mL, Enterococcus faecalis): +
- Growth or No Growth ([8]; final concentration 62.5 micrograms/mL, Enterococcus faecalis): +
- Growth or No Growth ([8]; final concentration 125 micrograms/mL, Enterococcus faecalis): 0
- Growth or No Growth ([8]; final concentration 250 micrograms/mL, Enterococcus faecalis): 0
- MIC [9]: 62.5 µg/mL
- Growth or No Growth ([9]; final concentration 31.25 micrograms/mL, S. aureus VISA): +
- Growth or No Growth ([9]; final concentration 62.5 micrograms/mL, S. aureus VISA): 0
- Growth or No Growth ([9]; final concentration 125 micrograms/mL, S. aureus VISA): 0
- Growth or No Growth ([9]; final concentration 250 micrograms/mL, S. aureus VISA): 0
- MIC (Minimum Inhibitory Concentration) ([2]; S. aureus MRSA, glycerol monolaurate alone): 62.5 micrograms/mL
- MIC (Minimum Inhibitory Concentration) ([2]; S. aureus MRSA, glycerol monolaurate alone, listed as Glycerol monolaurate): 62.5 micrograms/mL
- MIC ([2]; Staphylococcus aureus, read-out: MIC (Minimum Inhibitory Concentration), S. aureus MRSA, glycerol monolaurate alone): 62.5 µg/mL
- MIC of Glycerol monolaurate in two-component combination ([2]; S. aureus MRSA, listed as Glycerol monolaurate): 30 μg/mL Glycerol monolaurate
- MIC of Glycerol monolaurate in two-component combination ([2]; S. aureus MRSA, listed as glycerol monolaurate): ~30 µg/mL
- Concentration of the component at which bactericidal activity is still maintained in the three-component combination ([2]; MRSA): 15 µg/mL
- Growth or No Growth ([2]; final concentration 31.25 micrograms/mL, S. aureus MRSA): +
- Growth or No Growth ([2]; final concentration 62.5 micrograms/mL, S. aureus MRSA): 0
- Growth or No Growth ([2]; final concentration 125 micrograms/mL, S. aureus MRSA): 0
- Growth or No Growth ([2]; final concentration 250 micrograms/mL, S. aureus MRSA): 0

SMILES: C/C(=C\C(=O)OCCCCCCCCC(=O)O)C[C@@H]1OC[C@H](C[C@@H]2O[C@H]2[C@@H](C)[C@H](C)O)[C@@H](O)[C@H]1O [mupirocin]
- Clinical outcome of prior treatment of MRSA lesions [10]: the MRSA was still present in the patient's sinuses; also recorded: unsuccessfully treated
